Test results published in patent US20190224186A1, “TREATMENT OF MULTIPLE SCLEROSIS WITH CHS-131” (InteKrin Therapeutics, Inc., priority 2016, published 2019).

Tests used:
Format in all cases: in vivo, human
[1] = test system: MS patients in the relapsing and remitting course of the disease (RRMS); assay: Phase 2 trial: new and enlarged T2 lesions over 6 months; details: for mean number of new and enlarged T2 lesions over 6 months: n=76
Protocol: A Phase 2, randomized, double-blind, placebo-controlled, multi-center clinical trial of CHS-131 for the treatment of multiple sclerosis (MS) was conducted. The primary endpoint was the number of new gadolinium contrast-enhancing (CE) T1-weighted lesions on monthly MRI over 6 months. The study enrolled MS patients in the relapsing and remitting course of the disease (RRMS) who had been diagnosed within ≤3 years of enrollment. Patients had to be treatment-naïve, have ≥1 gadolinium-positive lesion within 12 months of enrollment, and have an Expanded Disability Status Score (EDSS) of 0-6 at screening. Part 1 was a double-blind, parallel-group, 6-month study. Patients were randomized to oral CHS-131 at 3 mg or 1 mg or placebo in a 1:1:1 ratio at 21 sites in Russia. Monthly MRIs were read in a blinded fashion at the Buffalo Neuroimaging and Analysis Center, Buffalo, N.Y., USA. Part 2 is an open label, 6-month, safety extension study, in which all subjects transition to 1 mg CHS-131 daily, to evaluate clinical response, CE lesions on MM, and safety. The mean number of new and enlarged lesions over 6 months was 3.43 for 3 mg CHS131 (n=76), 4.21 for 1 mg CHS131 (n=76), and 4.89 for placebo (n=74). The response was dose-dependent.

[2] = test system: MS patients in the relapsing and remitting course of the disease (RRMS); assay: Phase 2 trial: annualized confirmed relapse rate (ARR)
Protocol: The study enrolled MS patients in the relapsing and remitting course of the disease (RRMS) who had been diagnosed within ≤3 years of enrollment. Patients had to be treatment-naïve, have ≥1 gadolinium-positive lesion within 12 months of enrollment, and have an Expanded Disability Status Score (EDSS) of 0-6 at screening. Part 1 was a double-blind, parallel-group, 6-month study. Patients were randomized to oral CHS-131 at 3 mg or 1 mg or placebo in a 1:1:1 ratio at 21 sites in Russia. Monthly MRIs were read in a blinded fashion at the Buffalo Neuroimaging and Analysis Center, Buffalo, N.Y., USA. Part 2 is an open label, 6-month, safety extension study, in which all subjects transition to 1 mg CHS-131 daily, to evaluate clinical response, CE lesions on MM, and safety. The ARR was lower for both 3 mg CHS-131 (0.26) and 1 mg (0.28) as compared with placebo (0.35). Thus, administering CHS-131 reduces the rate at which relapses of worsening neurological function (e.g. flare-ups or exacerbations) occur. Put otherwise, administration of CHS-131 increases the time between relapses.

[3] = test system: MS patients in the relapsing and remitting course of the disease (RRMS); assay: Trend line of change in cortical volume versus EDSS scores; details: 6-month time point
Description: To evaluate the connection between cortical volume loss and dysfunction, the reduction in volume loss was compared to EDSS scores of the MS patients. FIGS. 5 and 6 show the relationship between the change in cortical volume and EDSS scores at 3 months and 6 months, respectively.

## O=S(=O)(Nc1cc(Cl)c(Oc2cnc3ccccc3c2)c(Cl)c1)c1ccc(Cl)cc1Cl [CHS-131]
[1]; 1 mg
  reduction in T2 lesions compared to placebo (LSMeans analysis): 14%
  mean number of new and enlarged T2 lesions over 6 months: 4.21
[1]; 3 mg
  mean number of new and enlarged T2 lesions over 6 months: 3.43
[1]; 3 mg, p=0.0767
  reduction in T2 lesions compared to placebo (LSMeans analysis): 30%
[2]; 1 mg
  Annualized Confirmed Relapse Rate (ARR): 0.28
[2]; 3 mg
  Annualized Confirmed Relapse Rate (ARR): 0.26
[3]; 1 mg
  trend line slope, change in cortical volume vs EDSS score: −0.138
[3]; 3 mg
  trend line slope, change in cortical volume vs EDSS score: 0.080
